# US20090176839A1, “FORMULATIONS OF 3-(6-(1-(2,2-DIFLUOROBENZO[D][1,3]DIOXOL-5-YL) CYCLOPROPANECARBOXAMIDO)-3-METHYLPYRIDIN-2-YL)BENZOIC ACID” (priority 2007, published 2009)
# “And” between values parts separate entries of the source, which are not always exact repeats. Equal entries are not always repeated.
# Assays:
# [1] = Stability of 6 mg/mL aqueous methylcellulose-polysorbate 80 suspension (HPLC, XRPD, NMR); format: physicochemical; settings: 0.5% methylcellulose/0.5% polysorbate 80; HCl salt quickly converted to Compound 1 at T(0)
# Protocol: Methylcellulose (0.5 g) was combined with 99.0 g of purified water in a beaker and stirred in a 60-70° C. water bath for 30′-1 hr. The solution was stirred in a 0° C. ice/water bath for another 30′ or until clear. Polysorbate 80 (0.5 g) was added and stirring at room temperature followed for 30′-1 hr or until a clear solution was obtained.
# The desired amount of 0.5% methylcellulose and 0.5% polysorbate 80 stock solution for making a 6 mg/mL based on free base (6.48 mg/mL based on HCl salt) was transferred into the vial and sonicated for 20 minutes with alternate stirring for 1-2 minutes. The solution was homogenized for approximately 1-2 minutes.
# As with 0.5% methylcellulose formulation prepared previously, the HCl salt was quickly converted to Compound 1 in Form I at T(0) resulting in a crystalline free form suspension as shown by XRPD (FIG. 10) and confirmed by ^1H NMR analysis (FIGS. 11-13). Additionally, the solid form in suspension at T(0) was recovered an subjected to HPLC analysis: […]
# [2] = Oral pharmacokinetics of Compound 1 and HCl salt in suspension in male dogs at 200 mg/kg
# [3] = Single oral pharmacokinetics of the HCl salt in suspension in fed and fasted male rats; format: in vivo, male Sprague Dawley rats; settings: 30 mg/kg; for AUC0-INF: HCl salt suspension; for Clast / F / Tmax / t1/2 / tlast: HCl salt
# Protocol: (§1) Non-validated research grade assays were used for these analyses. All pharmacokinetic studies were conducted using fed animals unless otherwise specified.
# The tmax following oral administration of the HCl salt was 3.7 hours under fed and 3.3 hours under fasted conditions, which was similar to the tmax of 3.0 to 4.7 hours following oral administration of Compound 1 under fed conditions.
# [4] = Single oral pharmacokinetics of the HCl salt in suspension in male dogs; format: in vivo, male beagle dogs; settings: for AUC0-INF / Cmax: mean (SD)
# Protocol: as §1
# At nominal dose levels of 5 to 200 mg/kg in 0.5% polysorbate 80/0.5% methylcellulose/water, exposure was high and relatively dose proportional to 200 mg/kg (Table 5). […] Bioavailability ranged from 24% to 49% at all dose levels studied and in both suspension formulations.
# Solubility (statement) = format: physicochemical; settings: water
# [5] = 0.5% polysorbate 80/0.5% MC/Water, 5 mg/kg
# [6] = 0.5% polysorbate 80/0.5% MC/Water, 25 mg/kg
# [7] = 0.5% polysorbate 80/0.5% MC/Water, 50 mg/kg
# [8] = 0.5% polysorbate 80/0.5% MC/Water, 100 mg/kg
# [9] = 0.5% polysorbate 80/0.5% MC/Water, 200 mg/kg
smiles,measurement,setting,value
"Cc1ccc(NC(=O)C2(c3ccc4c(c3)OC(F)(F)O4)CC2)nc1-c1cccc(C(=O)O)c1.Cl [HCl salt, 3-(6-(1-(2,2-difluorobenzo[d][1,3]dioxol-5-yl)cyclopropanecarboxamido)-3-methylpyridin-2-yl)benzoic acid.HCl]",physical stability of suspension,[1],not physically stable
same,Clast,[2]; HCl salt,0.128 µg/mL
same,F,[2]; HCl salt,53%
same,Tmax,[2]; HCl salt,2.5 h
same,t1/2,[2]; HCl salt,5.5 h
same,tlast,[2]; HCl salt,48 h
same,AUC0-INF,[2]; HCl salt suspension,755 µg·h/mL
same,AUC0-INF,[3]; Fasted,383 µg·h/mL
same,AUC0-INF,[3]; Fed,340 µg·h/mL
same,Clast,[3]; Fasted,0.06 µg/mL
same,F,[3]; Fasted,>100%
same,Tmax,[3]; Fasted,3.3 h and 3.33 h
same,t1/2,[3]; Fasted,5.36 h
same,tlast,[3]; Fasted,48 h
same,Clast,[3]; Fed,0.24 µg/mL
same,F,[3]; Fed,>100%
same,Tmax,[3]; Fed,3.7 h and 3.67 h
same,t1/2,[3]; Fed,6.07 h
same,tlast,[3]; Fed,48 h
same,F,"[4]; 0.5% MC/Water, 1 mg/kg",35%
same,T1/2,"[4]; 0.5% MC/Water, 1 mg/kg",6.0 h
same,Tmax,"[4]; 0.5% MC/Water, 1 mg/kg",0.83 h
same,AUC0-INF,"[4]; 0.5% MC/Water, 1 mg/kg",2.2 (0.5) hr · μg/mL
same,Cmax,"[4]; 0.5% MC/Water, 1 mg/kg",0.37 (0.2) μg/mL
same,F,"[4]; 0.5% MC/Water, 3 mg/kg",49%
same,T1/2,"[4]; 0.5% MC/Water, 3 mg/kg",5.3 h
same,Tmax,"[4]; 0.5% MC/Water, 3 mg/kg",1.7 h
same,AUC0-INF,"[4]; 0.5% MC/Water, 3 mg/kg",9.3 (4.8) hr · μg/mL
same,Cmax,"[4]; 0.5% MC/Water, 3 mg/kg",1.1 (0.5) μg/mL
same,F,"[4]; 0.5% MC/Water, 10 mg/kg",40%
same,T1/2,"[4]; 0.5% MC/Water, 10 mg/kg",8.8 h
same,Tmax,"[4]; 0.5% MC/Water, 10 mg/kg",1.0 h
same,AUC0-INF,"[4]; 0.5% MC/Water, 10 mg/kg",28.4 (12.8) hr · μg/mL
same,Cmax,"[4]; 0.5% MC/Water, 10 mg/kg",8.9 (7.2) μg/mL
same,F,[4]; [5],24%
same,T1/2,[4]; [5],7.0 h
same,Tmax,[4]; [5],1.0 h
same,AUC0-INF,[4]; [5],11.0 (3.6) hr · μg/mL
same,Cmax,[4]; [5],3.0 (0.5) μg/mL
same,F,[4]; [6],41%
same,T1/2,[4]; [6],5.9 h
same,Tmax,[4]; [6],2.0 h
same,AUC0-INF,[4]; [6],56.8 (22.1) hr · μg/mL
same,Cmax,[4]; [6],18.0 (3.7) μg/mL
same,F,[4]; [7],27%
same,T1/2,[4]; [7],4.9 h
same,Tmax,[4]; [7],1.7 h
same,AUC0-INF,[4]; [7],63.4 (22.9) hr · μg/mL
same,Cmax,[4]; [7],21.0 (7.1) μg/mL
same,F,[4]; [8],46%
same,T1/2,[4]; [8],5.4 h
same,Tmax,[4]; [8],1.7 h
same,AUC0-INF,[4]; [8],268 (123) hr · μg/mL
same,Cmax,[4]; [8],54.4 (6.8) μg/mL
same,F,[4]; [9],30%
same,T1/2,[4]; [9],5.9 h
same,Tmax,[4]; [9],2.3 h
same,AUC0-INF,[4]; [9],523 (46.8) hr · μg/mL
same,Cmax,[4]; [9],101 (30.2) μg/mL
same,solubility in water,Solubility (statement),sparingly soluble
